Experimental findings from PubChem BioAssay AID1259411 (Chemical Carcinogenesis Research Information System (CCRIS), 2018) are described below.

Activity calls are given as the source filed them. How the calls were made is not given here.

The data set concerns rodent carcinogenicity bioassays, tumor incidence. Briefly: CCRIS carcinogenicity studies. Particulars: Dose: 0. An outline of the steps: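 NCI-built, expert-reviewed records of carcinogenicity and related test outcomes (mutagenicity, tumor promotion/inhibition) compiled from published and report sources, historical span 1985-2011, not updated.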

As to `CCNC(=O)N(CCO)N=O`, the carcinogen call is, setting by setting: (Species: RAT, Strain/Sex: F344/FEMALE, Route: INTRAVESICULAR, 3.6 MG 2/WK FOR 30 WK (STUDY DURATION: LIFETIME), Tumor Site: Type of Lesion: BLADDER: TUMOR, UTERUS: TUMOR) “active; positive”; (Species: RAT, Strain/Sex: F344/FEMALE, Route: ORAL, 37, 74 MG/L IN DRINKING WATER 5 D/WK FOR 30 WK (STUDY DURATION: LIFETIME), 37, 74 MG/L IN DRINKING WATER 5 D/WK FOR 30 WK (STUDY DURATION: LIFETIME), Tumor Site: Type of Lesion: MAMMARY GLAND: CARCINOMA) “active; positive”; (Species: RAT, Strain/Sex: F344/MALE, Route: GAVAGE, 3.6 MG IN 0.2 ML ETHYL ACETATE/CORN OIL (1:1) 2/WK FOR 31 WK (TOTAL DOSE: 223 MG) (STUDY DURATION: 80 WK), Tumor Site: Type of Lesion: LIVER: CARCINOMA, LUNG: CARCINOMA OR ADENOMA, BRAIN: TUMORS, THYROID: CARCINOMA OR ADENOMA, PERITONEUM: MESOTHELIOMA, Tumor Site: Type of Lesion: LIVER: CARCINOMA, LUNG: CARCINOMA OR ADENOMA, BRAIN: TUMORS, THYROID: CARCINOMA OR ADENOMA, PERITONEUM: MESOTHELIOMA) “active; positive”; (Species: RAT, Strain/Sex: F344/MALE, Route: ORAL, 37, 74 MG/L IN DRINKING WATER 5 D/WK FOR 30 WK (STUDY DURATION: LIFETIME), 37, 74 MG/L IN DRINKING WATER 5 D/WK FOR 30 WK (STUDY DURATION: LIFETIME), Tumor Site: Type of Lesion: LIVER: TUMOR, LUNG: TUMOR, THYROID: FOLLICULAR TUMOR, MESOTHELIUM: TUMOR, NERVOUS SYSTEM: TUMOR, SKIN: TUMOR, Tumor Site: Type of Lesion: LIVER: TUMOR, LUNG: TUMOR, THYROID: FOLLICULAR TUMOR, MESOTHELIUM: TUMOR, NERVOUS SYSTEM: TUMOR, SKIN: TUMOR) “active; positive”.

Regarding `N[C@@H](Cc1c[nH]c2ccccc12)C(=O)O`, the carcinogen call is “inactive; negative” (Species: MOUSE, Strain/Sex: B6C3F1/FEMALE, Route: ORAL, 25000, 50000 PPM IN DIET, 25000, 50000 PPM IN DIET); “inactive; negative” (Species: MOUSE, Strain/Sex: B6C3F1/MALE, Route: ORAL, 25000, 50000 PPM IN DIET, 25000, 50000 PPM IN DIET); “inactive; negative” (Species: RAT, Strain/Sex: F344/FEMALE, Route: ORAL, 25000, 50000 PPM IN DIET, 25000, 50000 PPM IN DIET); “inactive; negative” (Species: RAT, Strain/Sex: F344/MALE, Route: ORAL, 25000, 50000 PPM IN DIET, 25000, 50000 PPM IN DIET).

With `O=C(CCl)c1ccccc1`, the carcinogen call by setting is: (Species: MOUSE, Strain/Sex: B6C3F1/FEMALE, Route: INHALATION, 2, 4 MG/M3 6 HR/D 5 D/WK FOR 103 WK (STUDY DURATION: 105 WK), 2, 4 MG/M3 6 HR/D 5 D/WK FOR 103 WK (STUDY DURATION: 105 WK)) “inactive; negative”; (Species: MOUSE, Strain/Sex: B6C3F1/MALE, Route: INHALATION, 2, 4 MG/M3 6 HR/D 5 D/WK FOR 103 WK (STUDY DURATION: 105 WK), 2, 4 MG/M3 6 HR/D 5 D/WK FOR 103 WK (STUDY DURATION: 105 WK)) “inactive; negative”; (Species: RAT, Strain/Sex: F344/FEMALE, Route: INHALATION, 1, 2 MG/M3 6 HR/D 5 D/WK FOR 103 WK (STUDY DURATION: 105 WK), 1, 2 MG/M3 6 HR/D 5 D/WK FOR 103 WK (STUDY DURATION: 105 WK), Tumor Site: Type of Lesion: MAMMARY GLAND: FIBROADENOMA) “equivocal”; (Species: RAT, Strain/Sex: F344/MALE, Route: INHALATION, 1, 2 MG/M3 6 HR/D 5 D/WK FOR 103 WK (STUDY DURATION: 105 WK), 1, 2 MG/M3 6 HR/D 5 D/WK FOR 103 WK (STUDY DURATION: 105 WK)) “inactive; negative”.

As to `COc1c(Cl)c(Cl)c([N+](=O)[O-])c(Cl)c1Cl`, the carcinogen call runs as follows: (Species: MOUSE, Strain/Sex: B6C3F1/FEMALE, Route: ORAL, 0.006, 0.012% OF DIET, 0.006, 0.012% OF DIET) “inactive; negative”; (Species: MOUSE, Strain/Sex: B6C3F1/MALE, Route: ORAL, 0.006, 0.012% OF DIET, 0.006, 0.012% OF DIET) “inactive; negative”; (Species: RAT, Strain/Sex: F344/FEMALE, Route: ORAL, 0.006, 0.012% OF DIET, 0.006, 0.012% OF DIET) “inactive; negative”; (Species: RAT, Strain/Sex: F344/MALE, Route: ORAL, 0.006, 0.012% OF DIET, 0.006, 0.012% OF DIET) “inactive; negative”.

Consider `O=[N+]([O-])c1ccc(OC2CO2)cc1` (stereo not drawn), for which the carcinogen call (Species: MOUSE, Strain/Sex: B6C3F1/MALE, Route: INTRAPERITONEAL, 60 NMOL/G BW IN 10 µL TRIOCTANOIN ONCE (STUDY DURATION: 10 MO), Tumor Site: Type of Lesion: LIVER: HEPATOMA) is “active; positive”.

On to `CC(C)(C)c1cc(O)ccc1O`, for which the carcinogen call is, setting by setting: (Species: MOUSE, Strain/Sex: B6C3F1/FEMALE, Route: ORAL, 1250, 2500, 5000 PPM IN DIET FOR 105 WK (STUDY DURATION: 105 WK), 1250, 2500, 5000 PPM IN DIET FOR 105 WK (STUDY DURATION: 105 WK)) “inactive; negative”; (Species: MOUSE, Strain/Sex: B6C3F1/MALE, Route: ORAL, 1250, 2500, 5000 PPM IN DIET FOR 104 WK (STUDY DURATION: 104 WK), 1250, 2500, 5000 PPM IN DIET FOR 104 WK (STUDY DURATION: 104 WK)) “inactive; negative”; (Species: RAT, Strain/Sex: F344/FEMALE, Route: ORAL, 1250, 2500, 5000 PPM IN DIET FOR 129 WK ADMINISTERED TO RATS ALSO EXPOSED IN UTERO THROUGH MOTHERS THAT RECEIVED THE, 1250, 2500, 5000 PPM IN DIET FOR 129 WK ADMINISTERED TO RATS ALSO EXPOSED IN UTERO THROUGH MOTHERS THAT RECEIVED THE) “inactive; negative”; (Species: RAT, Strain/Sex: F344/FEMALE, Route: ORAL, 5000 PPM IN DIET FOR 128 WK, CONTROL AND DOSED GROUPS FED AD LIBITUM (STUDY DURATION: 128 WK)) “inactive; negative”; (Species: RAT, Strain/Sex: F344/FEMALE, Route: ORAL, 5000 PPM IN DIET FOR 128 WK, CONTROL GROUP WAS WEIGHT-MATCHED TO DOSED GROUP (STUDY DURATION: 128 WK)) “inactive; negative”; (Species: RAT, Strain/Sex: F344/FEMALE, Route: ORAL, 5000 PPM IN DIET FOR 130 WK, CONTROL GROUP DIET RESTRICTED TO LIMIT WEIGHTS TO 85% OF AD LIBITUM-FED GROUPS (STUDY DU) “inactive; negative”. Moreover, the carcinogen call (Species: RAT, Strain/Sex: F344/MALE, Route: ORAL, 1250, 2500, 5000 PPM IN DIET FOR 123 WK ADMINISTERED TO RATS ALSO EXPOSED IN UTERO THROUGH MOTHERS THAT RECEIVED THE, 1250, 2500, 5000 PPM IN DIET FOR 123 WK ADMINISTERED TO RATS ALSO EXPOSED IN UTERO THROUGH MOTHERS THAT RECEIVED THE) is “inactive; negative”; the carcinogen call (Species: RAT, Strain/Sex: F344/MALE, Route: ORAL, 5000 PPM IN DIET FOR 102 WK, CONTROL AND DOSED GROUPS FED AD LIBITUM (STUDY DURATION; 122 WK), 5000 PPM IN DIET FOR 102 WK, CONTROL AND DOSED GROUPS FED AD LIBITUM (STUDY DURATION; 122 WK)) is “inactive; negative”; the carcinogen call (Species: RAT, Strain/Sex: F344/MALE, Route: ORAL, 5000 PPM IN DIET FOR 122 WK, CONTROL GROUP WAS WEIGHT-MATCHED TO DOSED GROUP (STUDY DURATION: 122 WK)) was “inactive; negative”; the carcinogen call (Species: RAT, Strain/Sex: F344/MALE, Route: ORAL, 5000 PPM IN DIET FOR 130 WK, CONTROL GROUP DIET RESTRICTED TO LIMIT WEIGHTS TO 85% OF AD LIBITUM-FED GROUPS (STUDY DU) was “inactive; negative”.

For the compound `CNc1ccc(N)cc1`, the carcinogen call (Species: MOUSE, Strain/Sex: B6C3F1/MALE, Route: INTRAPERITONEAL, 0.15 UMOL/G ONCE IN SODIUM ACETATE BUFFER (STUDY DURATION: 10 MO)) is “inactive; negative”.
